The text below walks through data of publication PMC5764437, “Discovery of novel, orally bioavailable, antileishmanial compounds using phenotypic screening” (PLoS Neglected Tropical Diseases, 2017).

Converted amounts (≈) assume the structure as drawn. Like-named read-outs stand apart in the source and are kept apart here. Bounds are passed on as bounds.

Series [1] is described as follows: Solubility in aqueous buffer. The class given is physicochemical. Particulars: pH 7.4, aqueous buffer, kinetic from dmso stock. As for the experimental part: Solubility assays were carried out on a Biomek FX lab automation workstation (Beckman Coulter, Inc., Fullerton, CA) using μSOL Evolution software (pION Inc.). Compound stock (10 mM in DMSO, 10 μL) was added to 1-propanol (190 μL) to make a reference stock plate. Reference stock solution (5 μL) was mixed with 1-propanol (70 μL) and citrate phosphate buffered saline (pH 7, 75 μL) to make the reference plate which was then measured with UV detection. Test compound stock (10 mM, 6 μL) was added to citrate phosphate buffered saline (594 μL) in a 96-well storage plate and mixed. […] The suspension was then filtered through a 96-well filter plate (pION Inc.). Filtrate (75 μL) was mixed with 1-propanol (75 μL) to make the sample plate, and the UV spectrum (250 nm −500 nm) of the sample plate was recorded. Calculation of solubility was carried out using μSOL Evolution software based on the AUC of the UV spectrum of the sample plate and the reference plate. All compounds were tested in triplicate.

Series [2] is described as follows: in vitro. Particulars: pH 7.4. The procedure:
Parallel Artificial Membrane Permeability Assay (PAMPA) was conducted by Biomek FX lab automation workstation (Beckman Coulter, Inc.) and PAMPA evolution 96 command software (pION Inc.). A 3 µL aliquot of […] test compound stock in DMSO was mixed with 597 µL of isotonic citrate phosphate buffered saline to make diluted test compound. Diluted test compound (150 µL) was transferred to a UV plate (pION Inc.) and the UV spectrum was read as the reference plate. The membrane on a pre-loaded PAMPA sandwich (pION Inc.) was painted with 4 µL GIT lipid (pION Inc.). The acceptor chamber was then filled with 200 µL acceptor solution buffer, (pION Inc.), and the donor chamber was filled with 180 µL diluted test compound. The PAMPA sandwich was assembled, placed on the Gut-Box and stirred for 30 min. The Aqueous Boundary Layer was set to 40 µm for stirring. The UV spectrum (250-500 nm) of the donor and the acceptor solutions were recorded. The permeability coefficient was calculated using PAMPA Evolution 96 Command software (pION Inc.) based on the AUC of the reference plate, the donor plate and the acceptor plate. All compounds were tested in triplicate.

Series [3] can be described thus: Caco-2 permeability assay. The class given is in vitro ADME. The conditions noted are these: human, pH 7.4; for Papp A→B at 2 h, 10 μmol/L / Papp B→A at 2 h, 10 μmol/L: mean ± standard deviation of three runs; for Papp A→B at 2 h, 10 μmol/L: read-out: Caco-2 (A→B) permeability coefficient; for Papp B→A at 2 h, 10 μmol/L: read-out: Caco-2 (B→A) permeability coefficient.

A short description of series [4]: Stability in simulated gastric fluid. Particulars: pH 1. The procedure: Compound stocks were 10 mM in DMSO. The internal standard was 5 µM warfarin in methanol. […] 1 ml SGF was added to a 1.1 ml 96-well storage plate and mixed well with 10 µl compound stock. The plate was then incubated at 37 °C and shaken at 60 rpm. […] At each time point, 100 µl was removed to a 1 ml storage plate and 300 µl internal standard was added to quench the reaction. […] The compound was detected by SIR and quantification was based on peak area of test compound and the internal standard.

A short description of series [5]: in vitro. Particulars: female, microsomes, pH 7.4. As for the experimental part: (§1) One part of 10 mM DMSO compound stock was mixed with 4 parts of acetonitrile to make 2 mM diluted compound stock in DMSO and acetonitrile. 29.1 µL diluted compound stock was added to 2.3 mL liver microsomal solution and vortexed to make microsomal solution with compound. […] For the 0 h time point, 450 µL pre-cooled (4 °C) internal standard (10 µM warfarin in methanol) was added to the first three columns before the reaction was initiated. 1.25 ml of microsome assay solution A (Fisher Scientific, #NC9255727) was combined with 0.25 ml of solution B (Fisher Scientific, #NC9016235) in 3.5 ml of potassium phosphate buffer (0.1 M, pH 7.4). 45 µL of this A+B solution was added to each well of the 96-well storage plate (reaction plate). Liquid in the first 3 columns was moved to another storage plate (quenched plate). The reaction plate was then sealed, incubated at 37 °C, and shaken at a speed of 60 rpm. Time points (0.5 h, 1 h, 2 h) were taken. At each time point, 450 µL pre-cooled internal standard was added to 3 rows in the reaction plate, and the liquid was then transferred to the quenched plate. […] 200 µL supernatant was transferred to a 96-well plate and analyzed by ultra-performance liquid chromatography-mass spectrometry (UPLC-MS) (Waters Inc.). The compounds and internal standard were detected by selected ion recording (SIR).

Series [6] is described as follows: in vitro. Particulars: microsomes, pH 7.4. The procedure: as §1
Series [7] is described as follows: in vitro. The conditions noted are these: both, microsomes, pH 7.4. As for the experimental part:
as §1

A further series relates to L. mexicana. Kind of series: Efficacy in murine model of cutaneous leishmaniasis (footpad lesion size). Type of series: in vivo. Particulars: BALB/c mice infected with L. mexicana; 20 mg/kg daily oral gavage for 10 days from week 4; measured weeks 4–12. As for the experimental part:
Female BALB/c mice (~20 g) were injected in one hind footpad with 1 x 10^6 stationary phase promastigotes suspended in 25 μl of phosphate buffered saline (PBS). Four weeks after infection, when a small cutaneous lesion was visible in the injected footpad, cohorts of five mice were treated with either compound or vehicle alone (90 μl), delivered daily for 10 consecutive days by oral gavage using a 20-gauge x 30 mm disposable plastic feeding needle. Vehicle consisted of 10/10/40/39 mixture of ethanol/(PG)/PEG400/PBS plus 1% (weight/volume) 2HβCD (PG is propylene glycol, PEG is polyethylene glycol, 2HβCD is 2-hydroxy-β-cyclodextran). The daily dose for each compound was: compound 4, 25 mg/kg; compound 5, 30 mg/kg; miltefosine, 20 mg/kg. The width of the footpad (top to bottom) was measured with calipers before injection of parasites (day 0) and weekly from weeks 4–12. The width of the uninfected contralateral footpad was also measured each week, and its width was subtracted from that of the infected footpad to determine lesion size.

The subject of series [8] is L. mexicana intracellular amastigotes. Kind of series: Growth inhibition of intracellular amastigotes in J774A.1 macrophages (Renilla luciferase luminescence). Type of series: cell-based. Particulars: Leishmania mexicana, J774.A1; intracellular amastigotes in J774A.1 macrophages; mean ± standard deviation, n = 2; read-out: L. mexicana EC50. The procedure:
(§2) L. mexicana (MNYZ/BZ/62/M379) or L. donovani (LdBob strain) parasites expressing the Renilla luciferase gene from a rRNA gene locus were used to infect J774A.1 macrophages. Growth of intracellular amastigotes was measured using a luminescence assay, as detailed previously. The growth inhibitor activities of compounds were tested against bloodstream form Lister 427 T. brucei in 96-well plates containing 1 X 10^5 parasites per well in 0.2 ml HMI-11 medium (Gibco/Thermo Fisher). Compounds (2 μl volumes in DMSO) were added to the parasites using serial 3-fold dilutions to cover a range of concentrations from about 10 μM to 1 nM. After 48 h incubation at 37°C under a humidified 5% CO2 atmosphere, 10 μl of 10% Triton X-100 and 100 X stock SYBR Green I (Sigma-Aldrich) in PBS was added and florescence measured (excitation 497 nm; emission 520 nm) after 1 h incubation in the dark using a Spectra Max Gemini XPS fluorimeter (Molecular Devices). Data were log transformed and EC50 values were determined using GraphPad Prism 6 (GraphPad Software). In the absence of growth inhibiting compounds, the parasites grew from an initial density of 5 X 10^5 cells/mL to ~3 X 10^6 cells/mL.
[…]. These were chosen as candidates for further study. From these 230 compounds, we were able to repurchase 113 from commercial vendors. These compounds were characterized for purity by ultra-performance liquid chromatography using ultraviolet spectroscopy and evaporative light scattering detection and identity by mass spectrometry. All validated compounds were profiled for activity against intracellular amastigotes, the disease-causing stage of the life cycle. Intracellular amastigote activity was determined using a strain of L. mexicana in which the Renilla luciferase gene was integrated into the rRNA locus, allowing robust expression for measuring amastigote growth within cultured macrophages. All 113 compounds were applied at 1 μM concentration for 96 h to J774A.1 macrophages infected with L. mexicana luciferase-expressing parasites. […].
Next, we generated dose-response curves for these 55 compounds against intracellular amastigotes and independently against J774A.1 macrophages to establish the relative potency of each compound against the pathogen and its host cell. […]. The nine remaining compounds, each representing a unique chemical scaffold (compounds 1–9, Fig 3), were designated top hits (Fig 1).

In series [9] the test system is L. donovani intracellular amastigotes. The series is described as above. Type of series: cell-based. Particulars: Leishmania donovani, J774.A1; intracellular amastigotes in J774A.1 macrophages; mean ± standard deviation, n = 2; read-out: L. donovani EC50. As for the experimental part: as §2
The next series concerns J774A.1 macrophages. The experiment in a line: Cytotoxicity to J774A.1 macrophages (dose-response). The class given is cell-based. Particulars: Mus musculus, J774.A1; host macrophage; tested up to 10 μM; mean ± standard deviation, n = 2; read-out: J774A.1 EC50. As for the experimental part:
Cytotoxicity of compounds to J774.A1 macrophages was determined by dose-response curves as described previously. In the absence of growth inhibitors or DMSO, the macrophages increased in number ~6-fold over 96 h in Minimum Essential Medium, employed for both macrophage infections and the toxicity assays.

Series [10] concerns Trypanosoma cruzi CL Brener epimastigotes. Kind of series: Growth inhibition of Trypanosoma cruzi epimastigotes (SYBR Green). The class given is cell-based. The conditions noted are these: Trypanosoma cruzi; 72 h, 10 μM to 1 nM; read-out: T. cruzi epimastigotes EC50. As for the experimental part:
Trypanosoma cruzi CL Brener epimastigotes were obtained from Dr. Fred Buckner of the Department of Medicine at the University of Washington. T. cruzi epimastigotes were grown in liver infusion tryptose medium and seeded in a 96-well plate at 10^5 epimastigotes per well in 100 μl medium. For each well, 1 μl of compound in DMSO at 100X the desired final concentration was added. Epimastigotes were exposed to a range of compound concentrations from 10 μM to 1 nM to determine EC50. Plates were incubated at 26°C for 72 h, then 10 μl 50X SYBR Green in 1% Triton X-100 was added to each well followed by incubation with shaking at room temperature for 30 minutes. Fluorescence was read (excitation 485nm, emission 535nm) with the Victor^2 multiplate reader (PerkinElmer). All data processing and visualization were performed using GraphPad Prism 6 software.

Series [11] relates to bloodstream form Lister 427 T. brucei. Kind of series: Growth inhibition of T. brucei bloodstream forms (SYBR Green I). The class given is cell-based. Particulars: bloodstream form, mean ± standard deviation, n = 2, read-out: T. brucei EC50. As for the experimental part:
as §2

Regarding `NC(=O)N1c2ccccc2C=Cc2ccccc21` [carbamazepine], the solubility – broadly, the dissolved amount per volume that the medium holds – at 18 h in [1] (citrate phosphate buffered saline) amounted to 82.2 µM (≈ 19.4 µg/mL). Moreover, in the series “in vitro [2]” (PAMPA), the Papp – broadly, the rate of passage across a membrane or cell layer, normalised by area and donor concentration – at 30 min, 0.05 µM amounted to 95.6 ×10⁻⁶ cm/s. Further, the efflux ratio – broadly, a quotient of directional permeabilities that is used to spot active efflux – at 2 h, 10 μmol/L in series [3] (Caco-2, pH 7.4, Papp B→A / Papp A→B) was determined as 0.79. In addition, the Papp A→B at 2 h, 10 μmol/L in series [3] (Caco-2) was 71.8 ± 1.2 ×10⁻⁶ cm/s. Besides, in [3] (Caco-2), the Papp B→A at 2 h, 10 μmol/L worked out at 56.5 ± 3.2 ×10⁻⁶ cm/s. Further, the half-life (as a rule, the time in which the quantity being followed falls by half) at 99 µM in [4] (simulated gastric fluid with pepsin) is over 24 h. The half-life at 20 μM in “in vitro [5]” (mouse), in the series “in vitro [6]” (rat) and in “in vitro [7]” (human) was over 4 h each time.

As to `CCCCCCCCCCCCCCCCOP(=O)([O-])OCC[N+](C)(C)C` [miltefosine, reference compound], in the series with L. mexicana, the “Cutaneous lesion size (footpad width)” value is “reduced lesion size from the initial dimension”.

For `Oc1c(C(Nc2ccccn2)c2cccc(Cl)c2Cl)ccc2cccnc12` (stereo not shown) [Compound 9], the half-maximal effective concentration (EC50) (usually the midpoint of the concentration-response curve) in series [8] turned out to be 100 ± 10 nM; in series [9] it was 15 ± 9 nM; in the series with J774A.1 macrophages it was 9000 ± 6000 nM; in [10], 2100 ± 70 nM.

In the case of `Cc1ccc(-c2cc3c(c(OCC4CCCN(C)C4)c2)OCCN(C(=O)Cc2c(C)noc2C)C3)s1` (stereo not shown) [Compound 8], the EC50 in series [8] is 23 ± 18 nM; in series [9], 1.1 ± 0.8 nM; in series [11] (Trypanosoma brucei), 300 ± 80 nM; in [11], under 300 nM; in the series with J774A.1 macrophages it was 2200 ± 1400 nM; in [10] it was 330 nM.

For `C[C@H]1O[C@@H](O[C@H]2[C@@H](O)C[C@H](O[C@H]3[C@@H](O)C[C@H](O[C@H]4CC[C@@]5(C)[C@H](CC[C@@H]6[C@@H]5C[C@@H](O)[C@]5(C)[C@@H](C7=CC(=O)OC7)CC[C@]65O)C4)O[C@@H]3C)O[C@@H]2C)C[C@H](O)[C@@H]1O` [digoxin], the solubility at 18 h in series [1] was 80.3 µM (≈ 62.7 µg/mL). Further, the efflux ratio at 2 h, 10 μmol/L in series [3] (Caco-2, Papp B→A / Papp A→B) was found to be 5.87. Further, the Papp A→B at 2 h, 10 μmol/L in series [3] (Caco-2) was 4.61 ± 0.46 ×10⁻⁶ cm/s. For the same molecule, in series [3] (Caco-2), the Papp B→A at 2 h, 10 μmol/L came to 27.1 ± 2.1 ×10⁻⁶ cm/s. In [4] (simulated gi fluid), this molecule had a half-life at 99 µM of over 24 h. Besides, the half-life at 20 μM in “in vitro [5]”, in “in vitro [6]” and in the series “in vitro [7]” was over 4 h in each case.

The molecule `CCCSc1ccc2nc(NC(=O)OC)[nH]c2c1` [albendazole] returned a solubility at 18 h in series [1] of 3.8 µM (≈ 1.01 µg/mL). The Papp at 30 min, 0.05 µM in the series “in vitro [2]” turned out to be 204 ×10⁻⁶ cm/s. In series [4] (simulated gi fluid), this molecule showed a half-life at 99 µM of over 24 h. Besides, the half-life at 20 μM in the series “in vitro [5]” was 0.7 h; in the series “in vitro [6]”, 1.62 h; in “in vitro [7]” it was over 4 h.
